Among the test systems are CAKI-1; SK-MEL-28; SR; NCI/ADR-RES; UACC-257; MCF7; NCI-H23; BT-549; IGROV-1; EKVX; HT-29; M14; MDA-N; UO-31; HCT-15; SF-268; K562; MOLT-4; HCC 2998; LOX IMVI.
Assay in all cases: DTP human tumour cell line panel, 48 h

SMILES strings stand for the structures.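 Cells were grown in 96-well plates and exposed to each compound for 48 hours at five concentrations; endpoints were interpolated linearly between bracketing concentrations, or set to the highest concentration if not reached. GI50 is the concentration that inhibits growth by half.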 Activity calls are given as the source filed them. Rule as the data show it: active = GI50 up to about 1.1 µM and inactive = higher.

A word on the GI50: it is the concentration at which growth is held to half of that of the control. Take `COC(=O)[C@]1(C)CCC[C@]2(C)[C@H]3CC[C@]4(C(C)C)OO[C@@H](O4)[C@]34O[C@@H]4C[C@H]21`: the concentration for 50% growth inhibition (GI50) was 0.384 µM (active) in the experiment with CAKI-1; 16.3 µM (inactive) in the experiment with SK-MEL-28; 0.238 µM (active) in the experiment with SR; 3.57 µM (inactive) in the experiment with NCI/ADR-RES; 14.9 µM (inactive) with UACC-257; 2.19 µM (inactive) with MCF7. The GI50 in the experiment on NCI-H23 was 6.56 µM (inactive); in the experiment with BT-549, 4.81 µM (inactive); in the experiment with IGROV-1 it was 0.157 µM (active); with EKVX it was 1.87 µM (inactive); in the experiment on HT-29, 1.82 µM (inactive); in the experiment with M14 it was 4.8 µM (inactive). Moreover, the GI50 is 2.22 µM (inactive) in the experiment with MDA-N; 0.641 µM (active) with UO-31; 2.16 µM in the experiment on HCT-15; 2.24 µM (inactive) in the experiment with SF-268; 1.99 µM (inactive) in the experiment with K562; 1.21 µM (inactive) with MOLT-4. The GI50 in the experiment with HCC 2998 was 2.15 µM (inactive); in the experiment on LOX IMVI it was 0.35 µM (active).

On to `O=c1[nH]cnc2c1ncn2C1SC(CO)C(O)C1O` (stereo not given), for which the GI50 in the experiment on CAKI-1, with SK-MEL-28, in the experiment on SR, in the experiment on NCI/ADR-RES, in the experiment on UACC-257 and in the experiment on MCF7 was > 100 µM (inactive) each time. Besides, the GI50 in the experiment on NCI-H23, with BT-549, in the experiment with IGROV-1, in the experiment on EKVX, with HT-29 and with M14 was > 100 µM (inactive) each time. Besides, the GI50 was > 100 µM (inactive) in the experiment on MDA-N; > 100 µM (inactive) in the experiment with UO-31; over 100 µM in the experiment on HCT-15; > 100 µM (inactive) with SF-268; > 100 µM (inactive) with K562; > 100 µM (inactive) in the experiment with MOLT-4. Besides, the GI50 in the experiment with HCC 2998 and with LOX IMVI was > 100 µM (inactive) each time.

For `Cc1cc(C)c(S(=O)(=O)N2CCCN(S(=O)(=O)c3c(C)cc(C)cc3C)OCCCON(S(=O)(=O)c3c(C)cc(C)cc3C)CCCN(S(=O)(=O)c3c(C)cc(C)cc3C)OCCCO2)c(C)c1`, the GI50 in the experiment on CAKI-1, in the experiment on SK-MEL-28, in the experiment with SR, in the experiment on NCI/ADR-RES, in the experiment with UACC-257 and in the experiment on MCF7 was > 100 µM (inactive) each time. Also, the GI50 in the experiment on NCI-H23, with BT-549, in the experiment with IGROV-1, with EKVX, with HT-29 and in the experiment with M14 was > 100 µM (inactive) in each case. Also, the GI50 in the experiment with MDA-N was > 100 µM (inactive); in the experiment with UO-31 it was > 100 µM (inactive); with HCT-15, over 100 µM; in the experiment on SF-268 it was > 100 µM (inactive); in the experiment with K562, > 100 µM (inactive); in the experiment with MOLT-4, > 100 µM (inactive). Besides, the GI50 in the experiment on HCC 2998 and in the experiment with LOX IMVI was > 100 µM (inactive) each time.

`O=c1c2ccccc2nc2n1NC(c1c(Cl)cccc1Cl)N2c1cccc(Cl)c1` (stereo not given): the GI50 is 10.8 µM (inactive) in the experiment on CAKI-1; 12.7 µM (inactive) with SK-MEL-28; 8.55 µM (inactive) in the experiment on SR; 6.44 µM (inactive) in the experiment on NCI/ADR-RES; 25.2 µM (inactive) with UACC-257; 1.69 µM (inactive) in the experiment on MCF7. The GI50 with NCI-H23 was 14.6 µM (inactive); in the experiment with BT-549, 51.4 µM (inactive); in the experiment with IGROV-1 it was 3.34 µM (inactive); in the experiment on EKVX, 6.43 µM (inactive); with HT-29, 6.73 µM (inactive); with M14 it was 7.24 µM (inactive). Further, the GI50 with MDA-N was 5.22 µM (inactive); in the experiment on UO-31 it was 2.38 µM (inactive); in the experiment on HCT-15, 30.3 µM; in the experiment on SF-268, 11.9 µM (inactive); in the experiment on K562, 54.2 µM (inactive); with MOLT-4, > 100 µM (inactive). The GI50 with HCC 2998 is 4.42 µM (inactive); in the experiment with LOX IMVI, 6.79 µM (inactive).

Consider `N#CC(=N)c1ncn(-c2ccc(N)cc2)c1N`, for which the GI50 in the experiment on CAKI-1, in the experiment with SK-MEL-28, in the experiment on SR, with NCI/ADR-RES, with UACC-257 and in the experiment on MCF7 was > 100 µM (inactive) throughout. Moreover, the GI50 in the experiment with NCI-H23, with BT-549, in the experiment on IGROV-1, with EKVX, in the experiment on HT-29 and in the experiment with M14 was > 100 µM (inactive) each time. The GI50 is > 100 µM (inactive) in the experiment on MDA-N; > 100 µM (inactive) in the experiment with UO-31; over 100 µM with HCT-15; > 100 µM (inactive) in the experiment with SF-268; > 100 µM (inactive) in the experiment on K562; > 100 µM (inactive) in the experiment on MOLT-4. The GI50 with HCC 2998 and in the experiment with LOX IMVI was > 100 µM (inactive) throughout.

Take `Nc1cc2c3c(c1)Oc1cc(N)cc4c1C3c1c(cc(N)cc1O4)O2`: the GI50 is 14.4 µM (inactive) in the experiment with CAKI-1; 47.3 µM (inactive) with SK-MEL-28; 15.5 µM (inactive) in the experiment with SR; 6.32 µM (inactive) in the experiment with NCI/ADR-RES; 30.5 µM (inactive) in the experiment with UACC-257; 24.8 µM (inactive) with MCF7. Further, the GI50 in the experiment on NCI-H23 is 33 µM (inactive); in the experiment with BT-549, 15.2 µM (inactive); in the experiment on IGROV-1, 10.4 µM (inactive); with EKVX it was 11.6 µM (inactive); with HT-29, 25.3 µM (inactive); in the experiment on M14, 26.9 µM (inactive). The GI50 in the experiment with MDA-N was 17.8 µM (inactive); in the experiment on UO-31 it was 47.2 µM (inactive); in the experiment with HCT-15 it was 18.3 µM; in the experiment on SF-268, 12.5 µM (inactive); in the experiment with K562, 30.8 µM (inactive); with MOLT-4 it was 39.6 µM (inactive). The GI50 with HCC 2998 is 34.9 µM (inactive); in the experiment on LOX IMVI, 17.9 µM (inactive).

Turning to `Cc1c(-c2ccccc2)n(C)c2cn[nH]c(=O)c12`, the GI50 in the experiment with CAKI-1 is 49.5 µM (inactive); with SK-MEL-28, 47.3 µM (inactive); in the experiment with SR, 27 µM (inactive); with NCI/ADR-RES it was 26.7 µM (inactive); with UACC-257, 45.5 µM (inactive); in the experiment with MCF7 it was 31.5 µM (inactive). Moreover, the GI50 was 38.4 µM (inactive) in the experiment on NCI-H23; 32.3 µM (inactive) in the experiment on BT-549; 70 µM (inactive) in the experiment on IGROV-1; 18.1 µM (inactive) in the experiment with EKVX; 26.1 µM (inactive) with HT-29; 42.5 µM (inactive) with M14. In addition, the GI50 in the experiment with MDA-N was 33.5 µM (inactive); in the experiment with UO-31 it was 44.1 µM (inactive); in the experiment with HCT-15, 36.6 µM; in the experiment with SF-268, 37.5 µM (inactive); in the experiment on K562, 47.3 µM (inactive); in the experiment on MOLT-4, 32.7 µM (inactive). Moreover, the GI50 is 27.8 µM (inactive) in the experiment with HCC 2998 and 18.7 µM (inactive) with LOX IMVI.

Values taken from ChEMBL document CHEMBL1201862, “PubChem BioAssay data set” (2004).
